Converted amounts (≈) assume the structure as drawn. *1 amine or outer side, *2 acyl side, *3 side chain or, on linkers, in order; H or OH if unused. Where a SMILES comes first, the peptide text is derived from it. Bridges are numbered along the chain shown (N, C = ends). [ ]: non-standard residue; d: D form. The star is where a group is joined. ξ: configuration not given here. Phe(3R-OH) = O=C([C@@H](N[*:1])[C@H](O[*:3])c1ccccc1)[*:2]; NMeTrp(4-OMe) = CN[CH](Cc1c[nH]c2cccc(OC)c12)C(=O)O; X1 = O=C(C(N[*:1])C(O)c1ccccc1)[*:2]; NMeT = CN[CH](C(=O)O)[CH](C)O; NMeI = CC[CH](C)[CH](NC)C(=O)O; ξNMe2Val = CC(C)C(C(=O)*)N(C)C; NMeL = CN[CH](CC(C)C)C(=O)O; NMeV = CN[CH](C(=O)O)C(C)C
Legend:
ClpC1 [1] = conditions: cited from earlier work
[2] = test system: ClpC1–ClpP1–ClpP2 complex; conditions: 2019, cited from earlier work; for effect on proteolytic activity: ECU, lassomycin: ref Choules et al., Gavrish et al., 2014; for effect on proteolysis: CYMA, RUF-I: ref Schmitt et al., 2011, Choules et al.
[3] = target: full-length ClpC1 (ClpC1-FL) (Mycobacterium tuberculosis) (UniProt P9WPC9); assay: SPR
ClpC1 [4] = conditions: cited from earlier work; remark: listed apart in the source
ClpC1-FL = ClpC1-FL (Mycobacterium tuberculosis, UniProt P9WPC9); format: binding; conditions: for Stoichiometry (Sm): calculated from SPR responses, compound molecules per ClpC1; for improvement of χ^2, multi-site versus one-site fit: multi-site fit better; for difference between Kd1 and Kd2: multi-site model
[5] = target: N-terminal domain of ClpC1 (ClpC1-NTD), residues 1-145 plus a C-terminal His tag (Mycobacterium tuberculosis) (UniProt P9WPC9); assay: crystal structure
[6] = co-crystallization attempts

In the case of lassomycin [reference compound], the “effect on ATPase activity” value (ClpC1 [1]) is given as “activate the ATPase activity” and the “effect on proteolytic activity” value [2] is given as “decrease the proteolytic activity”.

For ohmyungsamycin B (OMS-B) (peptide), the Kd1 (site 1, multi-site fit) [3] was 962 nM and the Kd2 (site 2, multi-site fit) [3] was 1740 nM.

For `C/C=C/C[C@@H]1NC(=O)[C@H](CC(C)C)N(C)C(=O)[C@H](CC(C)C)NC(=O)[C@H](Cc2ccc(O)c([N+](=O)[O-])c2)NC(=O)[C@H](C)N2C(=O)[C@H](CC(C)C2O)N(C)C(=O)[C@H](Cc2cn(C(C)(C)C3CO3)c3ccccc23)NC1=O` (stereo partly drawn) [RUF-I, rufomycin I], the “effect on ATPase activity” value (ClpC1 [1]) is given as “no significant effect”, the “enhancement of ATPase activity of ClpC1” value (ClpC1 [1]) is given as “no significant effect” and the “binding in the presence of ECU” value (ClpC1 [4]) is given as “cannot bind in the presence of ECU”. For the same compound, the effect on proteolysis [2] was “inhibition”.

For cyclomarin A [CYMA, reference compound], the “effect on ATPase activity” value (ClpC1 [1]) is given as “no effect on the ATPase activity” and the effect on proteolysis [2] is given as “activation”.

For ohmyungsamycin B [OMS-B], the “reduction in binding relative to ECU” value (ClpC1-FL; structural analogs of ECU) was “tenfold”.

Compound ecumicin (ECU) (peptide) has a stoichiometry N (ECU per ClpC1-NTD) [5] of 2 and a stoichiometry N [3] of 2.2.

For `CN[C@H](C(=O)N[C@H](C(=O)N[C@@H]1C(=O)N(C)[C@@H]([C@@H](C)O)C(=O)N[C@@H](C(C)C)C(=O)N(C)[C@@H](CC(C)C)C(=O)N[C@@H](C(C)C)C(=O)N(C)[C@@H](C(C)C)C(=O)N(C)[C@@H](Cc2c[nH]c3cccc(OC)c23)C(=O)N[C@@H](C(C)C)C(=O)N[C@@H]([C@H](O)c2ccccc2)C(=O)N[C@@H](C(C)C)C(=O)O[C@@H]1C)C(C)C)C(C)C` [OMS-A, ohmyungsamycin A] (H-[NMeV]VT[NMeT]V[NMeL]V[NMeV][NMeTrp(4-OMe)]V[Phe(3R-OH)]V; ester 3-C), the “Stoichiometry (Sm)” value (ClpC1-FL) was 2.2, the “improvement of χ^2, multi-site versus one-site fit” value (ClpC1-FL) was “threefold” and the “difference between Kd1 and Kd2” value (ClpC1-FL) was “fivefold”.

With ohmyungsamycin A (OMS-A) (peptide) the stoichiometry N [3] was 2.2.

In the case of `CCC(C)C(C(=O)NC1C(=O)N(C)C(C(C)O)C(=O)NC(C(C)C)C(=O)N(C)C(CC(C)C)C(=O)NC(C(C)C)C(=O)N(C)C(C(C)C)C(=O)N(C)C(Cc2c[nH]c3cccc(OC)c23)C(=O)NC(C(C)C)C(=O)NC(C(O)c2ccccc2)C(=O)NC(C(C)C)C(=O)OC1C)N(C)C(=O)C(NC(=O)C(C(C)C)N(C)C)C(C)C` (stereo not drawn) [ECU, ecumicin] (ξNMe2Val-V[NMeI]T[NMeT]V[NMeL]V[NMeV][NMeTrp(4-OMe)]V[X1]V; ester 3-C; configuration not given here), the “effect on ATPase activity” value (ClpC1 [1]) is listed as “activate the ATPase activity”, the “enhancement of ATPase activity of ClpC1” value (ClpC1 [1]) is listed as “at least twofold” and the “solubility (in words)” value [6] is listed as “poor solubility”. The “effect on proteolytic activity” value [2] was “decrease the proteolytic activity”, the MIC90 (Mtb) was 0.11 ± 0.013 µM (≈ 0.176 µg/mL) and the “χ^2 of one-site fit” value (ClpC1-FL; 1:1 Langmuir model, smaller = better fit) was 16.1. The “Stoichiometry (Sm)” value (ClpC1-FL) was 2.2, the “χ^2 of multi-site fit” value (ClpC1-FL; heterogeneous ligand model, smaller = better fit) was 3.2 and the “improvement of χ^2, multi-site versus one-site fit” value (ClpC1-FL) was “fivefold”. For the same compound, the “difference between Kd1 and Kd2” value (ClpC1-FL) was “about 18 fold”.

Source: publication PMC7193532 (Acta Crystallographica. Section D, Structural Biology, 2020)
